The text below walks through data of patent US20130131140A1, “TREATMENT OF DIABETES AND DISORDERS ASSOCIATED WITH VISCERAL OBESITY WITH INHIBITORS OF HUMAN ARACHIDONATE 12 LIPOXYGENASE AND ARACHIDONATE 15-LIPOXYGENASE” (priority 2010, published 2013).

SMILES strings stand for the structures. Entries after “also recorded” stand apart in the source; their conditions may differ.

Test [1] relates to human islets. In words: Glucose-stimulated insulin secretion in human islets. The test is classed as cell-based. The note with it: for effect on insulin secretion: human islets, 1 and 100 nM, 4 hours incubation, then 1 hour in 11 mM glucose. The procedure: In other studies, human islets were cultured in CMRL medium-1066 (Invitrogen) with 5% fetal bovine serum overnight and then transitioned to serum free Kreb-Ringer buffer at 37° C., and islets were incubated with and without HETEs in 3 and 18 mM glucose for 4 hours, as shown in FIG. 12. The supernatant was collected after each treatment, and insulin concentration in the supernatant was measured by an enzyme immunoassay method (Mercodia, Uppsala, Sweden) with a mouse or human insulin standard. The intraassay variation was less than 4%, and the interassay variation was less than 10%.
LOs catalyze the oxidation of linoleic acid and arachidonic acid, generating products of varying stability. […] Referring to FIGS. 13A and 13B, 12(S)-HETE, 15(S)-HETE, 12-HPETE, and 12-RHETE were tested at 1 and 100 nM doses to examine their effects on insulin secretion. Human islets were incubated with the various HETEs for 4 hours and then assessed for insulin secretion during a 1-hour period incubated in 11 mM glucose. Also confirmed were the effects of 12(S)-HETE on basal (3 mM) and stimulated (18 mM) glucose concentration.

For another test, the system named is JNK-1 and -2. In words: Western immunoblot of phosphorylated JNK in human islets. In kind it is cell-based. The note with it: human islets treated with 12(S)-HETE. The text has this:
(§1) Equal amounts of whole islet cell protein extracts were separated on polyacrylamide-sodium dodecyl sulfate gels and transferred to polyvinylidene difluoride transfer membranes (GE Healthcare, Buckinghamshire, UK). The blots were probed with primary antibodies, and bands were detected using horseradish […] secondary antibodies (GE Healthcare UK Limited, Chalfont, UK) and the enhanced chemiluminescence detection system (GE Healthcare).
(§2) Rabbit PAb anti-p38-MAPK (pTpY180/182) and anti-c-Jun N-terminal kinase (JNK)-1 and -2 (pTpY183/185) were purchased from Alpha BioSource/Invitrogen and were used at a 1:500 dilution. Mouse monoclonal anti-p38-MAPK (A-12) and rabbit polyclonal anti-actin (1-19) were purchased from Santa Cruz Biotechnology (Santa Cruz, Calif.). p38-MAPK was used at a 1:500 dilution, and actin was used at a 1:2500 dilution. Rabbit anti-12-LO (see Ref. 8) was used at a 1:1000 dilution.
(§3) To determine whether treating islets with 12(S)-HETE would affect the activity of two well-known stress-mediated pathways linked to β-cell damage, p38-MAPK and JNK in human islets, were investigated. […] The results are presented as the means±SD. *, P<0.05 compared with the corresponding control; #, P<0.05 compared with the cytokine treatment group.
For orientation: Immunoblotting shows a protein as a band on a membrane.

The next test concerns p38-MAPK. Put plainly: Western immunoblot of phosphorylated p38-MAPK in human islets. In kind it is cell-based.
Description: as §1, §2, §3

Test [2] concerns human islets. In words: Cell death by propidium iodide (PI) fluorescence. The test is classed as cell-based. The following applies: for cell death, PI staining intensity: overnight incubation. The procedure: Islets were treated with 20 μg/ml of propidium iodide (PI) and incubated for 10 minutes. Islets were imaged once under brightfield illumination to determine the islet borders and imaged again to measure PI fluorescence using 535-nm excitation and 617-nm emission as previously reported (11). Islets were circled, and the mean PI fluorescence intensity was determined for each islet individually. Three separate trials from three donors were conducted.
Islet cell death was evaluated by PI staining in islets after overnight incubation with 1, 10, or 100 nM 12(S)-HETE. […] This finding is consistent with dose-response measures of cell death previously observed with mouse islets (8).

For test [3], the system named is human islets. The note with it: 50 μm LSF overnight pretreatment, then 1 nm 12(S)-HETE 4 hours.
Description: Viability was assessed by detecting 3-(4,5-dimethylthiazol-2-yl)-2,5-diphenyltetrazolium bromide (MTT; Sigma-Aldrich) metabolism as previously described (17).
Human islets from four different human donors were pretreated with 50 μm LSF overnight or untreated as indicated. Islets were then treated with 1 nm 12(S)-HETE for 4 hours and incubated in 11 mm glucose for 1 hour to measure islet metabolic activity by MTT assay (A) or insulin secretion (B).
[4] abbreviates: human islets treated with 12(S)-HETE.

Turning to `CCCCC/C=C\C[C@@H](O)/C=C/C=C\C/C=C\CCCC(=O)O` [12(S)-HETE, 12-hydroxyeicosatetraenoic acid], the “effect on insulin secretion” value in the test with human islets [1] is given as “consistently reduced; also recorded: most substantial reduction in insulin secretion”. For the same molecule, the “phosphorylated JNK (ppJNK1 and -2) activity” value with JNK-1 and -2 is given as “not affected”. In the test on p38-MAPK (setting [4]), the “phosphorylated p38 (pp38) protein activity” value was “increased phosphorylated p38” and the “total p38-MAPK (p38)” value is reported as “without any change”. In the test on human islets [2] (100 nM), the “increase in cell death” value is 50% and the “cell death, PI staining intensity” value is recorded as “significant increase in cell death”. For the same molecule, the “cell death, PI staining intensity” value in the test with human islets [2] (1 or 10 nM) is listed as “no significant increase in cell death”.
In the case of `CCCCC/C=C\CC(/C=C/C=C\C/C=C\CCCC(=O)O)OO` (stereo not drawn) [12-HPETE, 12-hydroperoxyeicosatetraenoic acid], the entries for the “effect on insulin secretion” value in the test on human islets [1] and with human islets [1] (listed as 12(S)HPETE) were “consistently reduced” and “most substantial reduction in insulin secretion”, respectively.
As for `N#CC(=Cc1ccc(O)c(O)c1)C(=O)OCC=Cc1ccccc1` [CDC, cinnamyl-3,4-dihydroxy-α-cyanocinnamate], in the test with p38-MAPK (human islets pretreated with CDC, cytokines TNF-α, IFN-γ, IL-1β), the “cytokine-induced pp38-MAPK activity” value is listed as “significantly reduced; also recorded: blocked”.
Consider `C[C@@H](O)CCCCn1c(=O)c2c(ncn2C)n(C)c1=O` [LSF, Lisofylline], for which the “reversal of 12(S)-HETE effects on metabolic activity (MTT assay)” value in the test on human islets [3] is “partially reversed”. Further, in the test with human islets [1] (50 μm LSF overnight pretreatment, then 1 nm 12(S)-HETE 4 hours, 11 mm glucose 1 hour), the “reversal of 12(S)-HETE-induced reduction in insulin secretion” value is on record as “reversed”.
